Laboratory results: paper PMC4730229, “Benzobisthiazoles Represent a Novel Scaffold for Kinase Inhibitors of CLK Family Members” (Biochemistry, 2015)

Legend:
Test in all cases: Kinase profiling (radioactive filter binding)
Type in all cases: biochemical
Conditions in all cases: 1 uM compound
TrkA = TrkA (Homo sapiens, UniProt P04629)
Procedure: (§1) 3A5 and 5E4 were sent to the International Centre for Kinase Profiling at the MRC Protein Phosphorylation and Ubiquitylation Unit for profiling (as described in ref ([17])). Compounds were profiled against 140 kinases using a radioactive ([^33P]ATP) filter binding assay at a concentration of 1 μM. Results were obtained as inhibition of kinase activity and are listed in Supplementary Table 2.

RIPK2 = RIPK2 (Homo sapiens, UniProt O43353)
Procedure: as §1

PDK1 = PDK1 (Homo sapiens, UniProt O15530)
Procedure: as §1

MAP4K5 = MAP4K5 (Homo sapiens, UniProt Q9Y4K4)
Procedure: as §1

HER4 = HER4 (Homo sapiens, UniProt Q15303)
Chain of HER4 (Q15303 26-1308): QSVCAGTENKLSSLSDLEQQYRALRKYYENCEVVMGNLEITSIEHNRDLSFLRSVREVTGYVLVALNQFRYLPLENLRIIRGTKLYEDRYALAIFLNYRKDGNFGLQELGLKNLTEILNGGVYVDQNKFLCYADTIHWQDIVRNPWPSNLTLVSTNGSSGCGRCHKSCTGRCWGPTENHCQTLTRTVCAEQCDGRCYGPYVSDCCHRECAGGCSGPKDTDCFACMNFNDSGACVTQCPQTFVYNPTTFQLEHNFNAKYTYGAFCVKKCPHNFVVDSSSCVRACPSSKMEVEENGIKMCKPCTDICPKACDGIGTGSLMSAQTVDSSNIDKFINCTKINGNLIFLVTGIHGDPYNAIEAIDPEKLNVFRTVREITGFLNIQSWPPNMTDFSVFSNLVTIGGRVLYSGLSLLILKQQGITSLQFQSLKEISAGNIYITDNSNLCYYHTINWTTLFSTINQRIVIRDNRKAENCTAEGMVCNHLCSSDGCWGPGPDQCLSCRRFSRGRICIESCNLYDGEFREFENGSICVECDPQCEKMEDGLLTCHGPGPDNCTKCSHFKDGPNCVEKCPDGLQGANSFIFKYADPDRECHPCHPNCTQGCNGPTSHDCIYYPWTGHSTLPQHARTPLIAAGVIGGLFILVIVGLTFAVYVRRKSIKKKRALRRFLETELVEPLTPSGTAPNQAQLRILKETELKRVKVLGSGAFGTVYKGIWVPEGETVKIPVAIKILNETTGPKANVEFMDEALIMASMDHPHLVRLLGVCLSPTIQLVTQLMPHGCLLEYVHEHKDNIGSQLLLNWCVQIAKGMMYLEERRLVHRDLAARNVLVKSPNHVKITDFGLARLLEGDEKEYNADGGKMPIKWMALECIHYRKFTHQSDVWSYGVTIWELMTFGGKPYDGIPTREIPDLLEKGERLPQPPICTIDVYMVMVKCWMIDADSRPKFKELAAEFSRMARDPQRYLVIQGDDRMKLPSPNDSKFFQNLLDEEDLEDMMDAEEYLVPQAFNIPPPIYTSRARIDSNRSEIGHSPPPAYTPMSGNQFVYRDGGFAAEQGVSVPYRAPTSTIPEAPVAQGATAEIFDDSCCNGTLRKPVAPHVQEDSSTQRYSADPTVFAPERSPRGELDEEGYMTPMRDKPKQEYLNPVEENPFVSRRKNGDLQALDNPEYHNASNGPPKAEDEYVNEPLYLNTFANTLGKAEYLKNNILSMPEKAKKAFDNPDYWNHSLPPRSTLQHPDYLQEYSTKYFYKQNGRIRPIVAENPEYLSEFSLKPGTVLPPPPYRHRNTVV
Procedure: as §1

OSR1 = OSR1 (Homo sapiens, UniProt O95747)
Procedure: as §1

MNK2 = MNK2 (Homo sapiens, UniProt Q9HBH9)
Procedure: as §1

LKB1 = LKB1 (Homo sapiens, UniProt Q15831)
Procedure: as §1

NEK6 = NEK6 (Homo sapiens, UniProt Q9HC98)
Chain of NEK6 (Q9HC98 whole entry): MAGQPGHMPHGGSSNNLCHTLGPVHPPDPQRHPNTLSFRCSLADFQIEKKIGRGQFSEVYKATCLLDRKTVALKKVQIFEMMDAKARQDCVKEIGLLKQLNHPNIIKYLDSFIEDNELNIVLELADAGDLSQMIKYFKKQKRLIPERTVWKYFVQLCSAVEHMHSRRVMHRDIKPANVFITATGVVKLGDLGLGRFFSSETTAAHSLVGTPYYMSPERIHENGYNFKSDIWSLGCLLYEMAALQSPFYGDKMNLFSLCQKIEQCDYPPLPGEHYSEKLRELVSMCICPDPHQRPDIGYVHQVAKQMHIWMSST
Procedure: as §1

CAMKKb = CAMKKb (Homo sapiens, UniProt Q96RR4)
Chain of CAMKKb (Q96RR4 whole entry): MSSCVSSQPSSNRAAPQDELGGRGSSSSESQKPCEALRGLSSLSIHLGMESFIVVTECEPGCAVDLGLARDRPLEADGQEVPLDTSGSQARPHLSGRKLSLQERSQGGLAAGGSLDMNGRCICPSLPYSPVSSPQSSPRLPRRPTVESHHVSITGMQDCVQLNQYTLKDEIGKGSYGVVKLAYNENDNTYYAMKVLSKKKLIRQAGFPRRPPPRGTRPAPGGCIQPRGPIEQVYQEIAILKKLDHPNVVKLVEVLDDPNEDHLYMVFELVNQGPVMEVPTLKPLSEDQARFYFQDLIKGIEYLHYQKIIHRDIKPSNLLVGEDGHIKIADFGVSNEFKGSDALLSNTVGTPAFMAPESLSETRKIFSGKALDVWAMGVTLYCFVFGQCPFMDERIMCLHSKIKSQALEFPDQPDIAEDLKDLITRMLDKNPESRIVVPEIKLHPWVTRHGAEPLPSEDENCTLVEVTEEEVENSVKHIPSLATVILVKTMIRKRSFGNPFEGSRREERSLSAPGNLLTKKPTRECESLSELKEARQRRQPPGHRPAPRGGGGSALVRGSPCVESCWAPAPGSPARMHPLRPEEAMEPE
Procedure: as §1

p38a MAPK = p38a MAPK (Homo sapiens, UniProt Q16539)
Procedure: as §1

TTK = TTK (Homo sapiens, UniProt P33981)
Procedure: as §1

PKBb = PKBb (Homo sapiens, UniProt P31751)
Procedure: as §1

EPH-B3 = EPH-B3 (Homo sapiens, UniProt P54753)
Procedure: as §1

DYRK2 = DYRK2 (Homo sapiens, UniProt Q92630)
Procedure: as §1

MKK6 = MKK6 (Homo sapiens, UniProt P52564)
Procedure: as §1

MLK3 = MLK3 (Homo sapiens, UniProt Q16584)
Procedure: as §1

EPH-B2 = EPH-B2 (Homo sapiens, UniProt P29323)
Procedure: as §1

CHK1 = CHK1 (Homo sapiens, UniProt O14757)
Chain of CHK1 (O14757 whole entry): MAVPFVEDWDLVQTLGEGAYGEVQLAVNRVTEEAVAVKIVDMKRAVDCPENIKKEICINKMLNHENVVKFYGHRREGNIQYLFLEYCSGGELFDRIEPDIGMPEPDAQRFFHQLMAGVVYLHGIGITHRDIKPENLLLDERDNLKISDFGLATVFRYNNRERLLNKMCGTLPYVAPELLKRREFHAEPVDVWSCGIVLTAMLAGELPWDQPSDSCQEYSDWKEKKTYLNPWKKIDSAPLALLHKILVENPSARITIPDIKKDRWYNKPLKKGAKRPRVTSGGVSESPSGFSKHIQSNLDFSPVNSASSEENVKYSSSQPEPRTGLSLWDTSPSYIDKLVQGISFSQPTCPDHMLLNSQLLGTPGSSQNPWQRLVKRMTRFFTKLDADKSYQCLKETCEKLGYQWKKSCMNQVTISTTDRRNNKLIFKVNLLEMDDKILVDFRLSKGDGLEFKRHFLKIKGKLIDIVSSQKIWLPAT
Procedure: as §1

BTK = BTK (Homo sapiens, UniProt Q06187)
Procedure: as §1

EIF2AK3 = EIF2AK3 (Homo sapiens, UniProt Q9NZJ5)
Procedure: as §1

IKKb = IKKb (Homo sapiens, UniProt O14920)
Procedure: as §1

p38b MAPK = p38b MAPK (Homo sapiens, UniProt Q15759)
Procedure: as §1

MAPKAP-K3 = MAPKAP-K3 (Homo sapiens, UniProt Q16644)
Procedure: as §1

CK2 = CK2 (Homo sapiens, UniProt P68400)
Procedure: as §1

IR = IR (Homo sapiens, UniProt P06213)
Procedure: as §1

MST3 = MST3 (Homo sapiens, UniProt Q9Y6E0)
Procedure: as §1

PLK1 = PLK1 (Homo sapiens, UniProt P53350)
Procedure: as §1

GSK3b = GSK3b (Homo sapiens, UniProt P49841)
Procedure: as §1

PRAK = PRAK (Homo sapiens, UniProt Q8IW41)
Procedure: as §1

TTBK2 = TTBK2 (Homo sapiens, UniProt Q6IQ55)
Procedure: as §1

ULK1 = ULK1 (Homo sapiens, UniProt O75385)
Procedure: as §1

DYRK3 = DYRK3 (Homo sapiens, UniProt O43781)
Procedure: as §1

PAK4 = PAK4 (Homo sapiens, UniProt O96013)
Procedure: as §1

IGF-1R = IGF-1R (Homo sapiens, UniProt P08069)
Chain of IGF-1R (P08069 31-1367): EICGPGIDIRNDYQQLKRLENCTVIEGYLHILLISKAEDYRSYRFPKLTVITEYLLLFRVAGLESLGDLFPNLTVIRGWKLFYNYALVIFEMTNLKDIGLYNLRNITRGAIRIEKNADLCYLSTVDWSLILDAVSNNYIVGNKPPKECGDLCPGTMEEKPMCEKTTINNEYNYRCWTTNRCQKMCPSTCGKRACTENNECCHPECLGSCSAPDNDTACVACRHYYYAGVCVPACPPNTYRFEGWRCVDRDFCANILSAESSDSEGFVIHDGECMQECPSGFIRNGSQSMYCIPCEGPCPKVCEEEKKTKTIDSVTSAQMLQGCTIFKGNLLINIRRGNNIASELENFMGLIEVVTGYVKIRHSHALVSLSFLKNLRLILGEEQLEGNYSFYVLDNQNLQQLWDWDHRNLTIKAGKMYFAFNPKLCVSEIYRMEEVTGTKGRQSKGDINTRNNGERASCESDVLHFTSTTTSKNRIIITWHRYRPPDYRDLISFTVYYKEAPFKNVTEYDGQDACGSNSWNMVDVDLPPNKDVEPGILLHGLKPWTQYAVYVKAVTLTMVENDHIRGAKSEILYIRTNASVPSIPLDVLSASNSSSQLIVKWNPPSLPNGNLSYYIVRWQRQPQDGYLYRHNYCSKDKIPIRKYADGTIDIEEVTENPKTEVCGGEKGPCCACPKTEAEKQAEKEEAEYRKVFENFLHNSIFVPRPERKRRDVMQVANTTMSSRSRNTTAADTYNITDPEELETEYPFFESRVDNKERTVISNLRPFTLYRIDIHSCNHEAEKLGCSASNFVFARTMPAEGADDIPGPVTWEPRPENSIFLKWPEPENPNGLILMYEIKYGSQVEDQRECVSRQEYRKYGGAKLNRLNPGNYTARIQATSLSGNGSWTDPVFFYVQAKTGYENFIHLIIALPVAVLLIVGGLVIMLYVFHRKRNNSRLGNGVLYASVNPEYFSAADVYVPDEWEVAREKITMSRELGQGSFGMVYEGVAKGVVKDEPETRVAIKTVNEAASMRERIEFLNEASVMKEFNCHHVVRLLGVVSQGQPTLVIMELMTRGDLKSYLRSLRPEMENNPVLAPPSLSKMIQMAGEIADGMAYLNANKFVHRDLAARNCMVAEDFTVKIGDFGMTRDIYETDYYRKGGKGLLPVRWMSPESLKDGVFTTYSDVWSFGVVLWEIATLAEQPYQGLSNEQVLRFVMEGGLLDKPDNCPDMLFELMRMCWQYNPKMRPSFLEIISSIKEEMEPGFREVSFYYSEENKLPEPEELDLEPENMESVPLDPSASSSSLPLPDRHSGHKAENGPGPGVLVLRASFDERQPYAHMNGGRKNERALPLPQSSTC
Procedure: as §1

CAMK1 = CAMK1 (Homo sapiens, UniProt Q14012)
Procedure: as §1

PDGFRA = PDGFRA (Homo sapiens, UniProt P16234)
Procedure: as §1

BRSK1 = BRSK1 (Homo sapiens, UniProt Q8TDC3)
Chain of BRSK1 (Q8TDC3 whole entry): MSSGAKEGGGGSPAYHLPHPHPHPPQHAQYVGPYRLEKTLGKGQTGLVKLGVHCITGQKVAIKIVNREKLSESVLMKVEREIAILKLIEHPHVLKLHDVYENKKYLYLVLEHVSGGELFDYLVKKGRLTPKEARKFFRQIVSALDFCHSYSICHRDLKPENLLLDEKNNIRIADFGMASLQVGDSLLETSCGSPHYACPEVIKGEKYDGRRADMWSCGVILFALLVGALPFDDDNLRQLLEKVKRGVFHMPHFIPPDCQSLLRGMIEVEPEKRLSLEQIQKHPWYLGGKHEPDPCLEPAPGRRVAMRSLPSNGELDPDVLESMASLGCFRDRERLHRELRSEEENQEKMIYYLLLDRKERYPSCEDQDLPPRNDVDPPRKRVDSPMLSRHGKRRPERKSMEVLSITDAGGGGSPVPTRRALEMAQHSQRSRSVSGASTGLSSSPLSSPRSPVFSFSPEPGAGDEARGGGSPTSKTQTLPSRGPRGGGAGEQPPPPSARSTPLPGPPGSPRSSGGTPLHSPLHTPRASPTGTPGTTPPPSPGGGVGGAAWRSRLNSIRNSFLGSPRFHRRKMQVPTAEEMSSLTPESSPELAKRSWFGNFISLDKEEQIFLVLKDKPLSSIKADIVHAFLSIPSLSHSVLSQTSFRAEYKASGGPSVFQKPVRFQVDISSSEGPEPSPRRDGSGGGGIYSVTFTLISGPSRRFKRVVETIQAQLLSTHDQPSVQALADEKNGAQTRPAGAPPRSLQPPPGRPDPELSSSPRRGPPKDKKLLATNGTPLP
Procedure: as §1

SIK2 = SIK2 (Homo sapiens, UniProt Q9H0K1)
Procedure: as §1

EPH-B1 = EPH-B1 (Homo sapiens, UniProt P54762)
Procedure: as §1

Src = Src (Homo sapiens, UniProt P12931)
Procedure: as §1

HIPK3 = HIPK3 (Homo sapiens, UniProt Q9H422)
Procedure: as §1

Cc1nc2ccc3sc(NC(=O)c4ccc5ncsc5c4)nc3c2s1 [3A5, N-(2-methyl[1,3]thiazolo[5,4-e][1,3]benzothiazol-7-yl)-1,3-benzothiazole-6-carboxamide]
TrkA activity in kinase profiling (TrkA): 93
RIPK2 activity in kinase profiling (RIPK2): 83
PDK1 activity in kinase profiling (PDK1): 93
MAP4K5 activity in kinase profiling (MAP4K5): 91
HER4 activity in kinase profiling (HER4): 94
OSR1 activity in kinase profiling (OSR1): 101
MNK2 activity in kinase profiling (MNK2): 86
LKB1 activity in kinase profiling (LKB1): 79
NEK6 activity in kinase profiling (NEK6): 104
CAMKKb activity in kinase profiling (CAMKKb): 98
p38a MAPK activity in kinase profiling (p38a MAPK): 94
TTK activity in kinase profiling (TTK): 56
activity at 1 µM (PKBb): 125%
EPH-B3 activity in kinase profiling (EPH-B3): 89
DYRK2 activity in kinase profiling (DYRK2): 61
MKK6 activity in kinase profiling (MKK6): 119
MLK3 activity in kinase profiling (MLK3): 49
EPH-B2 activity in kinase profiling (EPH-B2): 90
CHK1 activity in kinase profiling (CHK1): 120
BTK activity in kinase profiling (BTK): 106
EIF2AK3 activity in kinase profiling (EIF2AK3): 119
IKKb activity in kinase profiling (IKKb): 85
p38b MAPK activity in kinase profiling (p38b MAPK): 100
MAPKAP-K3 activity in kinase profiling (MAPKAP-K3): 81
CK2 activity in kinase profiling (CK2): 105
IR activity in kinase profiling (IR): 127
MST3 activity in kinase profiling (MST3): 100
PLK1 activity in kinase profiling (PLK1): 110
GSK3b activity in kinase profiling (GSK3b): 102
PRAK activity in kinase profiling (PRAK): 89
TTBK2 activity in kinase profiling (TTBK2): 108
ULK1 activity in kinase profiling (ULK1): 138
DYRK3 activity in kinase profiling (DYRK3): 72
PAK4 activity in kinase profiling (PAK4): 84
IGF-1R activity in kinase profiling (IGF-1R): 123
CAMK1 activity in kinase profiling (CAMK1): 85
PDGFRA activity in kinase profiling (PDGFRA): 91
BRSK1 activity in kinase profiling (BRSK1): 101
SIK2 activity in kinase profiling (SIK2): 91
EPH-B1 activity in kinase profiling (EPH-B1): 101
Src activity in kinase profiling (Src): 89
HIPK3 activity in kinase profiling (HIPK3): 100

CSc1nc2ccc3nc(NC(=O)c4ccco4)sc3c2s1 [5E4, N-[7-(methylsulfanyl)[1,3]thiazolo[4,5-g][1,3]benzothiazol-2-yl]-2-furamide]
TrkA activity in kinase profiling (TrkA): 90
RIPK2 activity in kinase profiling (RIPK2): 34
PDK1 activity in kinase profiling (PDK1): 88
MAP4K5 activity in kinase profiling (MAP4K5): 89
HER4 activity in kinase profiling (HER4): 102
OSR1 activity in kinase profiling (OSR1): 111
MNK2 activity in kinase profiling (MNK2): 88
LKB1 activity in kinase profiling (LKB1): 79
NEK6 activity in kinase profiling (NEK6): 91
CAMKKb activity in kinase profiling (CAMKKb): 91
p38a MAPK activity in kinase profiling (p38a MAPK): 96
TTK activity in kinase profiling (TTK): 60
activity at 1 µM (PKBb): 121%
EPH-B3 activity in kinase profiling (EPH-B3): 110
DYRK2 activity in kinase profiling (DYRK2): 9
MKK6 activity in kinase profiling (MKK6): 101
MLK3 activity in kinase profiling (MLK3): 18
EPH-B2 activity in kinase profiling (EPH-B2): 94
CHK1 activity in kinase profiling (CHK1): 111
BTK activity in kinase profiling (BTK): 105
EIF2AK3 activity in kinase profiling (EIF2AK3): 84
IKKb activity in kinase profiling (IKKb): 90
p38b MAPK activity in kinase profiling (p38b MAPK): 98
MAPKAP-K3 activity in kinase profiling (MAPKAP-K3): 86
CK2 activity in kinase profiling (CK2): 77
IR activity in kinase profiling (IR): 116
MST3 activity in kinase profiling (MST3): 99
PLK1 activity in kinase profiling (PLK1): 102
GSK3b activity in kinase profiling (GSK3b): 84
PRAK activity in kinase profiling (PRAK): 85
TTBK2 activity in kinase profiling (TTBK2): 103
ULK1 activity in kinase profiling (ULK1): 127
DYRK3 activity in kinase profiling (DYRK3): 30
PAK4 activity in kinase profiling (PAK4): 74
IGF-1R activity in kinase profiling (IGF-1R): 117
CAMK1 activity in kinase profiling (CAMK1): 106
PDGFRA activity in kinase profiling (PDGFRA): 86
BRSK1 activity in kinase profiling (BRSK1): 86
SIK2 activity in kinase profiling (SIK2): 94
EPH-B1 activity in kinase profiling (EPH-B1): 93
Src activity in kinase profiling (Src): 79
HIPK3 activity in kinase profiling (HIPK3): 50
